For the assay, the target named is T1, human Plk4 kinase domain (aa 2-275) (Homo sapiens, UniProt O00444).
T1 construct: purified 6×His-tagged human Plk4 kinase domain (aa 2-275); 6xHis; made in house; host or cells: E. coli
T1 sequence (O00444 2-275): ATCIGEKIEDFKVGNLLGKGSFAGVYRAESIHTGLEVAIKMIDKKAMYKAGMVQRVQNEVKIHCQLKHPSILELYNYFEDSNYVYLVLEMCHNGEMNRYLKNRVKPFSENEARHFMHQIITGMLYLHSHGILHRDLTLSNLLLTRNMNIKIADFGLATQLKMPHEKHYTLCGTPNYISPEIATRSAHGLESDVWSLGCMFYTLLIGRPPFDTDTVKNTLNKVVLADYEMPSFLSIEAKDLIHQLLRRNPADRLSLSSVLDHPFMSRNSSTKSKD
In words: Plk4 kinase assay (ADP-Glo). Type of assay: biochemical. The note with it: Table 1. Here is the method:
Kinase assays. […] The Plk4 concentration in the final reaction was 2.5-10 nM with a final pH of 8.0. […] Reactions were allowed to proceed for 4-16 hours at 25° C. Detection was performed using ADP-Glo reagent (Promega), following manufacturer's instructions. Luminescence was measured on an Infinite M1000 plate reader (Tecan). Data were fit using Prism (GraphPad) and Kis were calculated from IC50 data using the Cheng and Prusoff equation (37) or the Copeland formalism for tight-binding inhibitors (38).

For the molecule `COc1c(Nc2cc(C)[nH]n2)nc(Sc2ccc(S(=O)(=O)C(C)(C)c3cccc([N+](=O)[O-])c3F)cc2F)nc1N1CC[C@H](N(C)C)C1`, the IC50 (as a rule, the midpoint of a concentration-inhibition curve) is less than 1000 nM.
The result for `COCCN1CCN(c2nc(Sc3ccc(NC(=O)C4CC4)cc3)nc(Nc3cc(C)[nH]n3)c2C)CC1` reads less than 1000 nM.
The figure for `CNC(=O)Nc1ccc(Sc2nc(Nc3cc(C)[nH]n3)c(C)c(N(C)C(C)C)n2)cc1` is less than 1000 nM.
The figure for `COc1c(Nc2cc(C)[nH]n2)nc(Sc2ccc(NC(=O)C3CC3)cc2)nc1N1CCN(C(C)C)CC1` is less than 1000 nM; for `COc1c(Nc2cc(C)[nH]n2)nc(Sc2ccc(NC(C)=O)cc2)nc1N1CCC(CC(=O)N(C)C)CC1` it is less than 1000 nM.
With `COc1c(Nc2cc(C)[nH]n2)nc(Sc2ccc(S(=O)(=O)Cc3ccccc3)cc2)nc1N1CCN(CCN2CCCCC2)CC1`, the IC50 was less than 1000 nM.
In turn, `CSc1nc(Nc2cc(C)[nH]n2)c(C)c(N(C)C(C)C)n1` came in with an IC50 of less than 1000 nM.
The figure for `CCOc1c(Nc2cc(C)[nH]n2)nc(Sc2ccc(NC(=O)C3CCCC3)cc2)nc1N1CCN(C(=O)COC)CC1` is 100 to 1000 nM; for `COc1c(Nc2cc(C)[nH]n2)nc(Sc2ccc(S(=O)(=O)Cc3cccc([N+](=O)[O-])c3F)cc2F)nc1N1CCCCC1` [drawing 379] it is less than 1000 nM.
Regarding `COc1c(Nc2cc(C)[nH]n2)nc(Sc2ccc(S(=O)(=O)C(C)(C)c3cccc([N+](=O)[O-])c3F)cc2F)nc1N1CCC(OC)C1` (stereo not drawn), the IC50 was less than 1000 nM.
The figure for `COc1c(Nc2cc(C)[nH]n2)nc(Sc2ccc(NC(=O)C3CC3)cc2)nc1N1CCN(C(C)(C)C)CC1` is more than 1000 nM; for `CCOc1c(Nc2cc(C)[nH]n2)nc(Sc2ccc(NC(=O)C3CCCC3)cc2)nc1N(CC)CC` it is more than 1000 nM; for `CCNc1nc(Sc2ccc(NC(=O)C3CC3)cc2)nc(Nc2cc(C)[nH]n2)c1OC` it is less than 1000 nM.
The result for `COc1c(Nc2cc(C)[nH]n2)nc(Sc2ccc(S(=O)(=O)C(C)(C)c3c(F)c(F)cc(F)c3F)cc2F)nc1N1CCC(N(C)C)CC1` reads less than 1000 nM; that for `Cc1cc(Nc2nc(Sc3ccc(N(C)C)cc3)nc(N3CCCCC3)c2C)n[nH]1`, less than 1000 nM; that for `COc1c(Nc2cc(C)[nH]n2)nc(Sc2ccc(S(=O)(=O)C(C)(C)c3c(F)c(F)cc(F)c3F)cc2F)nc1N1CC[C@@H](N(C)C)C1`, less than 1000 nM.
On to `CC(=O)Nc1ccc(Sc2nc(Nc3cc(C)[nH]n3)c(C)c(N3CCOCC3)n2)cc1`, for which the half-inhibitory concentration (IC50) is less than 1000 nM.
The result for `COc1c(Nc2cc(C)[nH]n2)nc(Sc2ccc(S(=O)(=O)C(C)(C)c3c(F)c(F)cc(F)c3F)cc2F)nc1N1CCN(CCN(C)C)CC1` reads less than 1000 nM.
The figure for `CCS(=O)(=O)c1ccc(Sc2nc(Nc3cc(C)[nH]n3)c(OC)c(N3CCN(CCN4CCN(C)CC4)CC3)n2)cc1` is less than 1000 nM; for `COc1c(Nc2cc(C)[nH]n2)nc(Sc2ccc(S(=O)(=O)C(C)(C)c3cccc([N+](=O)[O-])c3F)cc2F)nc1N1CC[C@@H](N(C)C)C1` it is less than 1000 nM; for `COc1c(Nc2cc(C)[nH]n2)nc(Sc2ccc(S(=O)(=O)C(C)(C)c3cccc([N+](=O)[O-])c3F)cc2F)nc1N1CCC(NC(C)=O)CC1` it is less than 1000 nM.
The figure for `CCOc1c(Nc2cc(C)[nH]n2)nc(Sc2ccc(S(=O)(=O)CC)cc2)nc1N1CCC(CCN(C)C)CC1` is less than 1000 nM; for `COc1c(Nc2cc(C)[nH]n2)nc(Sc2ccc(S(=O)(=O)C(C)(C)c3cc(F)cc(Cl)c3F)cc2F)nc1N1CCOCC1` it is less than 1000 nM; for `COc1ccccc1CS(=O)(=O)c1ccc(Sc2nc(Nc3cc(C)[nH]n3)c(OC)c(N3CCN(CCN(C)C)CC3)n2)cc1` it is less than 1000 nM.
In the case of `COCCN1CCN(c2nc(Sc3ccc(NC(C)=O)cc3)nc(Nc3cc(C)[nH]n3)c2OC)CC1`, the IC50 is less than 1000 nM.
The figure for `CC(=O)Nc1ccc(Sc2nc(Nc3cc(C)[nH]n3)c(C)c(N3CCN(CCN4CCCCC4)CC3)n2)cc1` is less than 1000 nM; for `COc1c(Nc2cc(C)[nH]n2)nc(Sc2ccc(S(=O)(=O)Cc3ccccc3)cc2)nc1N1CCC(CCC23CC4CCC(C2)N43)CC1` (stereo not drawn) it is less than 1000 nM.
